Data on 9 compounds can be found in PMC6152009, “The Influence of Glycosylation of Natural and Synthetic Prenylated Flavonoids on Binding to Human Serum Albumin and Inhibition of Cyclooxygenases COX-1 and COX-2” (Molecules : A Journal of Synthetic Chemistry and Natural …, 2017).

The structures appear in SMILES notation.

The target in this test is T1, human serum albumin (HSA) (Homo sapiens, UniProt P02768).
T1 construct: gene ALB; essentially fatty acid free HSA
T1 sequence (P02768 25-609): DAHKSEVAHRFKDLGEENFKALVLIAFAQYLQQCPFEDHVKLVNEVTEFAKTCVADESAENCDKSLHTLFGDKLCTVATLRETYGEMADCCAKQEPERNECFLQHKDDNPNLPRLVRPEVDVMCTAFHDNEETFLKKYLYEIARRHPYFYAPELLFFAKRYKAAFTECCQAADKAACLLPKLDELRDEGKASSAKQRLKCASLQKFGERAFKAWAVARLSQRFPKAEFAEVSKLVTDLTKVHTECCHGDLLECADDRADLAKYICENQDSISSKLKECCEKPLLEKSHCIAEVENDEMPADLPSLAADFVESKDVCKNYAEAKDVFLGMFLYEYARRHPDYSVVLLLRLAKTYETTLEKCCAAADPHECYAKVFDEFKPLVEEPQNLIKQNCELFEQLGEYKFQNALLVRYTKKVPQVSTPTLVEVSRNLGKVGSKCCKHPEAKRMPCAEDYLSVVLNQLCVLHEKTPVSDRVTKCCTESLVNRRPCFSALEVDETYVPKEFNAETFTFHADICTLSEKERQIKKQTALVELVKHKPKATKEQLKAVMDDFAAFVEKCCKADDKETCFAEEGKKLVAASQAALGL
As to the kind of experiment: intrinsic fluorescence quenching, double-log plot. In kind it is binding. The note with it: 300 K, phosphate buffer pH 7.4, 15 µM HSA, <2% DMSO. The source says: intrinsic fluorescence quenching, double-log plot on human serum albumin (HSA)
As for `COc1cc(O)c(CC=C(C)C)c2c1C(=O)/C(=C/c1ccc(O)cc1)O2` [compound 3, (Z)-6,4’-dihydroxy-4-methoxy-7-prenylaurone], the Kb was 14250 M⁻¹.

`COc1cc(O[C@@H]2O[C@H](CO)[C@@H](O)[C@H](O)[C@H]2O)c(CC=C(C)C)c(O)c1C(=O)/C=C/c1ccc(O)cc1` [compound 4, Xanthohumol 4’-O-β-D-glucopyranoside] displayed a Kb of 32710 M⁻¹. `COc1cc(O[C@@H]2O[C@H](CO)[C@@H](O)[C@H](O)[C@H]2O)c(CC=C(C)C)c(O)c1C(=O)CCc1ccc(O)cc1` [compound 6, α,β-Dihydroxanthohumol 4’-O-β-D-glucopyranoside] returned a Kb of 4480 M⁻¹. With `COc1cc(O[C@@H]2O[C@H](CO)[C@@H](OC)[C@H](O)[C@H]2O)c(CC=C(C)C)c2c1C(=O)/C(=C/c1ccc(O)cc1)O2` [compound 9, (Z)-6,4’-Dihydroxy-4-methoxy-7-prenylaurone 6-O-β-D-(4’’’-O-methyl)glucopyranoside] the figure was 9150 M⁻¹; with `COc1cc(O[C@@H]2O[C@H](CO)[C@@H](OC)[C@H](O)[C@H]2O)c(CC=C(C)C)c(O)c1C(=O)/C=C/c1ccc(O)cc1` [compound 5, Xanthohumol 4’-O-β-D-(4’’’-O-methyl)glucopyranoside], 4550 M⁻¹. `COc1cc(O)c(CC=C(C)C)c(O)c1C(=O)CCc1ccc(O)cc1` [compound 2, α,β-dihydroxanthohumol] returned a Kb of 36350 M⁻¹. Next, `COc1cc(O[C@@H]2O[C@H](CO)[C@@H](O)[C@H](O)[C@H]2O)c(CC=C(C)C)c2c1C(=O)/C(=C/c1ccc(O)cc1)O2` [compound 8, (Z)-6,4’-Dihydroxy-4-methoxy-7-prenylaurone 6-O-β-D-glucopyranoside]: 4850 M⁻¹.

In turn, `COc1cc(O)c(CC=C(C)C)c(O)c1C(=O)/C=C/c1ccc(O)cc1` [compound 1, 3’-[3”,3”-dimethylallyl]-2’,4’,4-trihydroxy-6’-methoxychalcone] registered a Kb of 86240 M⁻¹. With `COc1cc(O[C@@H]2O[C@H](CO)[C@@H](OC)[C@H](O)[C@H]2O)c(CC=C(C)C)c(O)c1C(=O)CCc1ccc(O)cc1` [compound 7, α,β-Dihydroxanthohumol 4’-O-β-D-(4’’’-O-methyl)glucopyranoside] the figure was 6110 M⁻¹.
